“Also recorded” adds a separate entry of the source.

Holding throughout (assay type): in vivo, human
The nature of series [1]: Patient subjective experience and adverse event monitoring. As to the method:
(§1) The safety of the IV infusion was evaluated using a combination of endpoints, including tolerable infusion rate, total number of adverse effects, participant vital signs, a complete blood count (CBC), a comprehensive metabolic panel (CMP), glucose and insulin levels, and the participant's self-reported subjective experience.
Adverse event monitoring began on the first day of the study and continued for 14 days (study one) or 7 days (study two). Participants were instructed to notify the research staff of any new or unusual symptoms during the trial and open-ended questions during data collection solicited unexpected side effects.

The nature of series [2]: Clinical chemistry (comprehensive metabolic panel). As for the experimental part: as §1
Between-groups comparisons of each outcome measured in the […] and CMP were evaluated using mixed between-within subjects ANOVA with the timepoint being the within subjects' factor and the group assignment as the between subjects factor. Mauchly's test of sphericity was used to confirm assumptions. Violations of the assumption of sphericity are addressed with the Greenhouse-Geisser correction.
Additional analyses were conducted using GraphPad Prism (Ver. 10.0.2). Statistical significance was determined as p<0.05, with comparisons of the test articles compared to saline or between group comparisons. 2way ANOVA with Tukey's multiple comparisons test with a single pooled variance was used to determine significance in hematology, clinical chemistry, and vitals. Time in chair was analyzed for study 1 by a one-way ANOVA with multiple comparisons, study 2 was analyzed by unpaired t-test. The baseline variable of age was analyzed for differences by one way ANOVA with multiple comparisons for study.

Series [3] can be described thus: Tolerable infusion rate / infusion duration, Study 1. As to conditions: 500 mg in 500 ml saline, start 20 drops per minute for 15 minutes, then rate by participant comfort, mean ± SD. As for the experimental part: Vials of 50 mg/ml of NR or NAD+ were prepared in 10 ml of sterile water by DCA Pharmacy (Franklin, Tennessee) by prescription, for research administration only, and maintained in refrigerated conditions until use. For participants who were randomized to the test group or to the active comparator group, the NR or NAD+ was added to 500 ml of normal saline (B Braun 0.9% sodium chloride injection USP, preservative free) prior to intravenous administration. Those randomly assigned to the saline group received 500 ml of normal saline. Participants that were randomly assigned to the oral arm were provided with 500 mg of NR which was taken with water.
In the first study, participants began the infusion at a rate of 20 drops per minute for the first 15 minutes to ensure safety and comfort. […] Participants were closely monitored for the duration of the infusion, and the infusion rate was decreased, as applicable, upon participant request.
Additional analyses were conducted using GraphPad Prism (Ver. 10.0.2). Statistical significance was determined as p<0.05, with comparisons of the test articles compared to saline or between group comparisons. […] Time in chair was analyzed for study 1 by a one-way ANOVA with multiple comparisons, study 2 was analyzed by unpaired t-test. The baseline variable of age was analyzed for differences by one way ANOVA with multiple comparisons for study.

As to `NC(=O)c1ccc[n+]([C@@H]2O[C@H](COP(=O)([O-])OP(=O)(O)OC[C@H]3O[C@@H](n4cnc5c(N)ncnc54)[C@H](O)[C@@H]3O)[C@@H](O)[C@H]2O)c1` [NAD+ IV, Nicotinamide Adenine Dinucleotide], the “comfort level described by majority of patients” value in series [1] (during IV infusion) is “low”. The “patients having a bowel movement during the IV” value in series [1] (fraction of patients, nursing staff report) is given as “Approximately half”. In addition, the “sensations / adverse experiences reported during infusion” value in series [1] (patient self-report, 500 mg IV) is “anxiety, headaches, nausea, and sudden urges to have a bowel movement or diarrhea; also recorded: nausea, headache, diarrhea, and muscle tightness”. Moreover, the “significant differences in bilirubin and AST (indicators of liver function)” value in series [2] (3- and 24-hour timepoints) was “not detected”. For the same compound, the “change in globulin from baseline to 24 hours post infusion” value in series [2] (Study 1, mean ± SD) was determined as 0.1300±0.1829. Moreover, the “estimated glomerular filtration rate change from baseline to 3 hours post infusion” value in series [2] (Study 1, mean ± SD, not deemed clinically significant) is given as 1.400±8.462. In series [3], the “infusion intake, average” value turned out to be 182.9 ± 55.93 min.
